Reference: ChEMBL document CHEMBL3739372 (Bioorg Med Chem, 2015)

Tests used:
[1] = Cytotoxicity against MDCK cells after 72 hrs by XTT assay; format: cell-based, Canis lupus familiaris; details: dog
[2] = Inhibition of Influenza B virus wild type neuraminidase
Influenza A virus = test: Antiviral activity against Influenza A virus infected in MDCK cells after 72 hrs by yield reduction assay; format: functional, organism-based

Row | SMILES | CC50 at 72 h [1] [µM] | IC50 [2] [µM] | EC50 (Influenza A virus) [µM]
1 | CCOC(=O)c1cn(CC)c2ccc(-n3cc(C4=CCCCC4)nn3)cc2c1=O | 566 | 22 | 0.2
2 | CCOC(=O)C1=C[C@@H](OC(CC)CC)[C@H](NC(C)=O)[C@@H](N)C1 [OSELTAMIVIR] | 321 | 16 | 0.03
